In US11274131B2, “IgM-mediated receptor clustering and cell modulation” (MAYO FOUNDATION FOR MEDICAL EDUCATION AND RESEARCH, priority 2007, dated 2022):

Test system: matured human monocyte-derived DC
Assay: Antigen uptake assay, matured human DC
Assay type: cell-based
Details: inhibitor pretreatment before B7-DC XAb
Procedure: FIGS. 2A to 2G are a series of pictures showing that a kinase activated pathway regulates antibody-induced antigen uptake by matured DC. Matured human monocyte-derived DC were treated with the MTAb B7-DC XAb for varying time periods and evaluated for the phosphorylation status of select signaling pathway intermediates by immunoprecipitation with DAP12 (MC457), Syk (4D10), and PLCγ1 (MC490) reactive antibodies followed by western blot analysis using the phosphotyrosine reactive antibody 4G10 as a probe (FIGS. 2A-2C). Samples of the cells blocked with indicated concentration of piceatannol (FIG. 2D) or with […] of piceatannol (FIG. 2E) were analyzed for phosphorylation of Syk (FIG. 2D) and PLCγ1 (FIG. 2E). To investigate the functional importance of these signaling intermediates in the regulation of antigen uptake by matured DC activated with B7-DC XAb, varying concentrations of pharmacologic inhibitors were used to block the activity of p72Syk (piceatannol) and PLCγ1 (U73122) (FIGS. 2F and 2G, respectively). Antigen uptake was assessed by pulsing cultures with FITC-conjugated ovalbumin and measuring intracellular fluorescence 16 hours later in CD11c positive cells by flow cytometry.
Human DC were generated from peripheral blood CD14^+ monocytes by incubation in GM-CSF and IL-4 for five days. […] All cultures were pulsed with OVA-FITC at the time of treatment with IgM antibodies, and […] OVA-FITC was assessed 24 hours later by flow cytometry.
FIGS. 4A and 4B are a series of plots showing the effects of kinase inhibitors on OVA-FITC uptake by matured human DC, as determined by flow cytometry. […] All cells were pulsed with OVA-FITC at the time of treatment with IgM antibody, and CD11c+ cells were analyzed for OVA-FITC uptake 24 hours later by flow cytometry. […]
Antigen uptake experiments were carried out as described previously (Radhakrishnan et al. (2005) Proc. Natl. Acad. Sci. U.S.A. 102:11438-11443). […] The matured cells were incubated with ovalbumin labeled with FITC or APC and control antibody or B7-DC XAb for two hours, washed and analyzed by FACSCALIBUR™ (Becton Dickinson). […]

SMILES	inhibition of B7-DC XAb-induced antigen uptake by matured DC
CC(C)(C)n1nc(-c2ccc(Cl)cc2)c2c(N)ncnc21 [PP2]	inhibition of antigen uptake
COc1ccc2c(c1)CC[C@@H]1[C@@H]2CC[C@]2(C)[C@@H](NCCCCCCN3C(=O)C=CC3=O)CC[C@@H]12 [U73122]	inhibited uptake of tagged proteins by matured DC in a dose responsive manner
